Laboratory results from patent US8017557B2, “Benzodioxole derivatives as modulators of proteolytic activity in plants” (Endura S.p.A., priority 2002, dated 2011).
Where two headings read alike, the source gives them in different places.

Assays:
[1] = tested on: endopeptidase activity in cotton sprouts; conditions: for absorbance reading, Mean, Cotton Sprouts Treated with PBO / absorbance reading, replicate 1, Cotton Sprouts Treated with PBO / absorbance reading, replicate 2, Cotton Sprouts Treated with PBO / absorbance reading, replicate 3, Cotton Sprouts Treated with PBO / Endopeptidase Activity (U × 10^3), Cotton Sprouts Treated with PBO: pH 7.7; for absorbance reading, Mean, Cotton Sprouts Treated with PBO / absorbance reading, replicate 1, Cotton Sprouts Treated with PBO / absorbance reading, replicate 2, Cotton Sprouts Treated with PBO / absorbance reading, replicate 3, Cotton Sprouts Treated with PBO / % difference of endopeptidase activity, treated vs untreated / Endopeptidase Activity (U × 10^3), Cotton Sprouts Treated with PBO: 4 days of germination, PBO 1% w/v; for Δ U (endopeptidase activity, untreated vs PBO treated): same scale as Activity (U × 10^3)
Description: The extent of hydrolytic activity in cotton sprouts was measured at 15′, 30′, 60′, 90′ and 120′ after solubilization of the acetonic powder in aqueous buffer at pH 7.7 by determining the absorbance at 280 nm in a quartz cuvette after protein precipitation with TCA and removal by centrifugation. Each series of analysis was performed in […]. The comparison between the values of […] activity in treated (dark grey) and untreated (light grey) samples was done using the average value of each series of analysis. Abscissa: time (min); ordinate: Abs 280 nm.
The basic idea was to “freeze” the physiologic protein hydrolysis enzymatic activity and to re-establish the process simply solubilizing the proteolytic enzymatic system in suitable buffers, which were 0.1 M phosphate pH 6.5 and 0.1 M tris-HCl pH 7.7, for evaluating both the carboxypeptidase and the endopeptidase activities according to the method described by Hile et al. 1972; Funkhouser et al. 1980.
Cotton seeds (cv. Carmela) were obtained from “Semillas Battle”, Barcelona (E).
The seeds were previously rinsed in tap water and then imbibed with aeration in distilled water over night (Funkhouser, E. A. et al., Z. Pflanzenphysiol., 1980, 100, 319-324).
The plastic boxes containing seeds were covered by a plastic film and placed in a germinator in the dark for 4 days at 30° C. as described in Hile, J. N. and Dure, L. S. J. Biol. Chem., 1972, 247: 5034-5040.
The cotton sprouts of 4 days were collected and frozen in liquid nitrogen and freeze dried (Hile et al. 1972). After this process, the material was crushed in a pestle and freed from fibrous material and settled up to obtain a pretty homogeneous meal of about 0.5 mesh.
The meals were defatted using n-hexane (1:10 w/v) at room temperature and then treated with acetone at −20° C. to remove pigments and polyphenolic compounds, in this case mainly gossypol. The powders obtained were stored in a dry box at room temperature.
The acetonic powder (30 mg) was suspended in buffer (4 ml) and incubated at 37° C. for 15′, 30, 60, 90, 120 minutes. The proteolysis was stopped adding 1 ml of 12% trichloroacetic acid. In this case the buffer used was 0.1 M phosphate pH 7.7 (Funkhouser et al. 1980). The control was a suspension of the same sample prepared in the same way but was immediately deactivated, adding up 1 ml of trichloroacetic acid. The trials with treated and untreated samples were carried out at the same time.
Proteins were precipitated with trichloroacetic acid and then removed by filtration, before with Whatman paper n. 4 and then by micro-filtration (Orange Scientific Braine I'Alleud, Belgium (Ø0.2 μm)). Finally, the hydrolyzed protein samples were analyzed as clear solutions by determining the absorbance at 280 nm in a quartz cuvette.
Each series of analysis was performed threefold. The comparison between the values of endopeptidase activity of treated and untreated samples was done using the average value of each series of analysis.

ficin = conditions: Wo 25, HEPES pH 7.1, 30° C.
Description: Reverse micelles assay of ISO-AOT 50 mM (AOT: twin aerosol (2-ethylhexylsodiumsulfosuccinate in isooctane (ISO)); Wo (H2O/AOT)=25
The assays were carried out in the reverse-micelles assay dispersed in organic solvent, described by Walde et al. in Eur. J. Biochem., 1988, 173:401-409, and already reported in the literature in kinetic studies of the inhibition of trypsin with natural and synthetic inhibitors. […]
The enzyme assay on reverse-micelle has been already described in the literature for the enzyme trypsin and was adapted to different enzymes. […] To this solution was added an appropriate volume of substrate CBZ (dissolved in acetonitrile/H2O, 80:20 (v/v) at a concentration of 15 mM) and following further agitation (the solution returned to being transparent), the change in absorbance was measured (Dabs) at 340 nm with a Cary 219 spectrophotometer.
The experimental data obtained are represented graphically in the form of Dixon-plot (described for example in: “Quantitative Problems in Biochemistry”, E A. Dawes, 5th ed. 1972 Baltimore, The Williams and Wilkins Company), in the FIGS. 1, 2 and 3.

[2] = Time 0 (immediately deactivated)

CCCCOCCOCCOCc1cc2c(cc1CCC)OCO2 [PBO, 5-[[2-(2-Butoxyethoxy)ethoxy]methyl]-6-propyl-1,3-benzodioxole]
endopeptidase activity in PBO treated cotton sprouts ([1]; FIG. 5, treated vs untreated cotton sprouts): lower than in the untreated ones | absorbance reading, Mean, Cotton Sprouts Treated with PBO [1, 2]: 868.00 | absorbance reading, replicate 1, Cotton Sprouts Treated with PBO [1, 2]: 821.00 | absorbance reading, replicate 2, Cotton Sprouts Treated with PBO [1, 2]: 897.00 | absorbance reading, replicate 3, Cotton Sprouts Treated with PBO [1, 2]: 886.00 | % difference of endopeptidase activity, treated vs untreated ([1]; Time 15′): 47.86% | Endopeptidase Activity (U × 10^3), Cotton Sprouts Treated with PBO ([1]; Time 15′): 50.67 U × 10^3 | absorbance reading, Mean, Cotton Sprouts Treated with PBO ([1]; Time 15′): 918.67 | absorbance reading, replicate 1, Cotton Sprouts Treated with PBO ([1]; Time 15′): 965.00 | absorbance reading, replicate 2, Cotton Sprouts Treated with PBO ([1]; Time 15′): 876.00 | absorbance reading, replicate 3, Cotton Sprouts Treated with PBO ([1]; Time 15′): 915.00 | Δ U (endopeptidase activity, untreated vs PBO treated) ([1]; Time 15′): 46.50 U | % difference of endopeptidase activity, treated vs untreated ([1]; Time 30′): 29.00% | Endopeptidase Activity (U × 10^3), Cotton Sprouts Treated with PBO ([1]; Time 30′): 82.00 U × 10^3 | absorbance reading, Mean, Cotton Sprouts Treated with PBO ([1]; Time 30′): 950.00 | absorbance reading, replicate 1, Cotton Sprouts Treated with PBO ([1]; Time 30′): 965.00 | absorbance reading, replicate 2, Cotton Sprouts Treated with PBO ([1]; Time 30′): 935.00 | absorbance reading, replicate 3, Cotton Sprouts Treated with PBO ([1]; Time 30′): 950.00 | Δ U (endopeptidase activity, untreated vs PBO treated) ([1]; Time 30′): 33.50 U | % difference of endopeptidase activity, treated vs untreated ([1]; Time 60′): 12.86% | Endopeptidase Activity (U × 10^3), Cotton Sprouts Treated with PBO ([1]; Time 60′): 148.00 U × 10^3 | absorbance reading, Mean, Cotton Sprouts Treated with PBO ([1]; Time 60′): 1016.00 | absorbance reading, replicate 1, Cotton Sprouts Treated with PBO ([1]; Time 60′): 1038.00 | absorbance reading, replicate 2, Cotton Sprouts Treated with PBO ([1]; Time 60′): 1038.00 | absorbance reading, replicate 3, Cotton Sprouts Treated with PBO ([1]; Time 60′): 972.00 | Δ U (endopeptidase activity, untreated vs PBO treated) ([1]; Time 60′): 21.83 U | % difference of endopeptidase activity, treated vs untreated ([1]; Time 90′): 28.80% | Endopeptidase Activity (U × 10^3), Cotton Sprouts Treated with PBO ([1]; Time 90′): 127.33 U × 10^3 | absorbance reading, Mean, Cotton Sprouts Treated with PBO ([1]; Time 90′): 995.33 | absorbance reading, replicate 1, Cotton Sprouts Treated with PBO ([1]; Time 90′): 1015.00 | absorbance reading, replicate 2, Cotton Sprouts Treated with PBO ([1]; Time 90′): 991.00 | absorbance reading, replicate 3, Cotton Sprouts Treated with PBO ([1]; Time 90′): 980.00 | Δ U (endopeptidase activity, untreated vs PBO treated) ([1]; Time 90′): 51.50 U | % difference of endopeptidase activity, treated vs untreated ([1]; Time 120′): 22.48% | Endopeptidase Activity (U × 10^3), Cotton Sprouts Treated with PBO ([1]; Time 120′): 129.33 U × 10^3 | absorbance reading, Mean, Cotton Sprouts Treated with PBO ([1]; Time 120′): 997.33 | absorbance reading, replicate 1, Cotton Sprouts Treated with PBO ([1]; Time 120′): 1017.00 | absorbance reading, replicate 2, Cotton Sprouts Treated with PBO ([1]; Time 120′): 960.00 | absorbance reading, replicate 3, Cotton Sprouts Treated with PBO ([1]; Time 120′): 1015.00 | Δ U (endopeptidase activity, untreated vs PBO treated) ([1]; Time 120′): 37.50 U | IC50 (ficin; read-out: IC50 of PBO on ficin, evaluated from Dixon plot): 800 µM | Ki (ficin; read-out: inhibition constant (KI) of PBO on the enzyme ficin, Dixon plot, substrate CBZ 1.5×10^−4 M and 6×10^−5 M): 450 µM
